The text below walks through data of patent US7915303B2, “Glycopyrronium salts and their therapeutic use” (priority 2005, dated 2011).

Format in all cases: physicochemical
A short description of data set [1]: TG-FTIR thermal stability (weight loss / degradation).
A short description of data set [2]: Glass transition temperature by differential scanning calorimetry (DSC). The settings on record: for glass transition temperature (Tg) compared with glycopyrronium bromide: comparison with glycopyrronium bromide (1).
A short description of data set [3]: Characterisation of moisture sorption (hygroscopicity) of the amorphous form. Conditions: sorption of moisture at low relative humidity. The source says:
Part of the development of glycopyrronium bromide involves milling of the active substance down to a particle size suitable for use in a dry powder inhalation formulation. […] This material becomes sticky upon sorption of moisture at low relative humidity (RH), and then finally crystallises to a non-hygoscopic hard crystalline substance.
The amorphous form of glycopyrronium iodide (2), for example, can be formed by physical techniques such as spray drying or lyophylisation and its sorption behaviour studied by dynamic vapour sorption (DVS) varying RH over time.

Take Glycopyrronium Acetate: the “TG-FTIR weight loss / degradation” value in data set [1] was “no significant weight loss below 200° C., degrades above this temperature”. Further, the “glass transition temperature (Tg) compared with glycopyrronium bromide” value in data set [2] was “lower glass transition temperature (Tg) than glycopyrronium bromide”.

Regarding Glycopyrronium Iodide, the “TG-FTIR weight loss / degradation” value in data set [1] was “no significant weight loss below 200° C., degrades above this temperature”. Besides, in data set [2], the “glass transition temperature (Tg) compared with glycopyrronium bromide” value is on record as “lower glass transition temperature (Tg) than glycopyrronium bromide”. Moreover, the “Tg (glass transition)” value in data set [2] (lyophilized material, DSC second scan) was 55 °C.

For the molecule Glycopyrronium Sulphate, in data set [1], the “TG-FTIR weight loss / degradation” value is given as “no significant weight loss below 200° C., degrades above this temperature”. For the same molecule, the “glass transition temperature (Tg) compared with glycopyrronium bromide” value in data set [2] was “lower glass transition temperature (Tg) than glycopyrronium bromide”.

Consider `C[N+]1(C)CCC(OC(=O)C(O)(c2ccccc2)C2CCCC2)C1` (stereo not drawn) [glycopyrronium bromide, reference compound], for which the “hygroscopicity of the amorphous form” value in data set [3] was “highly hygroscopic”. In data set [2] (amorphous material, determined by DSC), the “glass transition temperature (Tg)” value stood at 64.9 °C.
